According to patent US6358522B1, “Pharmaceutical compositions containing lipase inhibitor” (Hoffmann-La Roche Inc., priority 1998, dated 2002):

Assay: Anal leakage of oil in rats on high fat diet with diet-admixed orlistat
Assay type: in vivo
From the text: Rats maintained on high fat diet were used as models. […] However, the amount of oil leakage could not easily be determined. Due to coprophagia and extensive grooming activity the rats distributed the oil to a large extent over their fur. Moreover, this stressful condition of unsuccessful grooming provoked considerable excitation of the animals. The area of greasy fur increased in proportion to the amount of unabsorbed fat and was reduced by dietary admixture of selected examples of the above defined food additives. However, for reasons of animal care for comparative evaluation of the additives a surrogate parameter was used to assess effects on oil leakage. Following a meal containing orlistat, unabsorbed fat is temporarily stored in the caecum of the rat prior to excretion. The fat is partly present as floating liquid oil, partly associated with unabsorbable solids.

Anal leakage of oil: provoked anal leakage of liquid oil
SMILES: CCCCCCCCCCC[C@@H](C[C@@H]1OC(=O)[C@H]1CCCCCC)OC(=O)[C@H](CC(C)C)NC=O [orlistat, N-formyl-L-leucine ester with (3S,4S)-3-hexyl-4-[(2S)-2-hydroxy-tridecyl]-2-oxetanone]
